Source: patent publication US7919508B2, “3-piperidinylisochroman-5-ols as dopamine agonists” (Aventis Pharmaceuticals Inc., priority 2004, dated 2011)
Structures can show the parent of a compound that is named as a salt.

Experiments:
[1] = biological target: human dopamine D2Long (D2L) receptors (Homo sapiens, UniProt P14416)
[2] = biological target: T1, human dopamine D1 receptor (Homo sapiens, UniProt P21728); experiment: [3H]-SCH-23390 binding to cloned human dopamine D1 receptors (CHO cell membranes); settings: competitive binding, [3H]-SCH-23390, cloned human D1 in CHO membranes; read-out: D1 affinity Ki
T1 construct: A 1.4 Kb Hind III to Xho I fragment was subcloned into the vector pMMLV; expressed in transfected cells; host or cells: CHO cells, clone CHO-D1M#9 (plasmid pHD1MMLV), membranes
T1 sequence (P21728 whole entry, the tested form may be a part): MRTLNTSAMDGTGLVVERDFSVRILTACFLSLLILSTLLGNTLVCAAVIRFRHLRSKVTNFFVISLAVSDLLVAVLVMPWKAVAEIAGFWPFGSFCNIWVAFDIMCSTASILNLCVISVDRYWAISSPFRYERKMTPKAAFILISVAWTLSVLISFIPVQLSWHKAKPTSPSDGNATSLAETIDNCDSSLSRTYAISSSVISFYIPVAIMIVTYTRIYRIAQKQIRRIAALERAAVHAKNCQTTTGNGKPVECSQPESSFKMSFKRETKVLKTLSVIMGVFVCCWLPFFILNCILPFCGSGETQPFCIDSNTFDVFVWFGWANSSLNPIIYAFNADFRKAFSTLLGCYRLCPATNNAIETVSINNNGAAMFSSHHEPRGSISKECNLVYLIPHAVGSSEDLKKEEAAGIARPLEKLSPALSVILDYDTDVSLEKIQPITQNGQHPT
Method: [^3H]-SCH-23390 Binding to Cloned Human Dopamine D1 Receptors
Determination of relative binding affinity of potential neuropsychiatric and other agents for the human dopamine D1 receptor.
The human D, cDNA was obtained from the laboratory of Dr. Marc Caron in the vector pCMV5. A 1.4 Kb Hind III to Xho I fragment was subcloned into the vector pMMLV. The plasmid pHD1MMLV was then sequenced completely. Transient transfections in COS-7 cells were performed and D1 specific binding was obtained. The construct pHD1MMLV was then transfected stably into CHO cells and 72 G418-resistant clones were isolated. High expressors were identified by mRNA dot blot analysis. Six high expressors were further characterized by binding and then clone CHO-D1M#9 was chosen for detailed pharmacological characterization. This clone was then grown in suspension culture for the purpose of obtaining enough protein to accommodate several months of screening.
B. Cell Culture Conditions
• 1. […] Cells are transferred to suspension culture when at least […] are available (this allows for 300,000 cells/ml in a 50 ml spinner flask; this is the ideal suspension density). Cells are removed from flasks with trypsin, spun down at 1000×G and resuspended the pellet in fresh medium: • 50% CHO-SFM-II+50% Ham's F12 w/10% FBS (final FBS conc. 5%)+400 μg/ml G418+1% P/S. • 3. After the transfer to suspension culture, growth is monitored and cell viability is assessed using trypan blue exclusion. Total and viable cell count on 5 sectors of the hemocytometer are recorded. When the viable cell density reaches 600,000 cell/ml, the volume is doubled. • 4. After 1 week of growth in the 50/50 medium, the cells are spun down and transferred to a new spinner flask and replaced with 75% CHO-SFM II/25% Ham's F12+10% FBS plus the pen-strep and G418. Thereafter every 3 days, the medium is replaced with new medium containing a decreasing amount of FBS as follows:
• 5. The final maintenance culturing medium is made up as follows: • A stock mixture of 10 ml of pen-strep, 0.5 ml of […] (active; final concentration: 200 μg/ml) G418 and 1 ml of FBS are mixed and filtered and refrigerated. A volume (11.5 ml) of this mixture is added to a freshly opened 1 L bottle of CHO-SFM II. C. Membrane Preparation
Cells are harvested into 250 ml centrifuge tubes and spun down at 1200×G. The medium is removed and 100 ml PBS (phosphate-buffered saline) is added to each centrifuge tube; cells are resuspended and spun down again. The PBS is removed and the final pellet is homogenized with a polytron on ice at a medium setting.
The membrane suspension is diluted in water and samples (10, 50 and 100 μl; q.s. to 100 μl with water) are diluted with 100 μl of 1% SDS. The sample is vortexed and allowed to stand for 5 min. Two aliquots each of the solubilized protein sample are placed in clean 13×100 test tubes for the assay. Instructions are followed as outlined in the BioRad DC protein determination kit (Catalog # 500-0112). OD readings that fall between 0.1-0.5 (mid-range of standard curve) should typically be used for calculations. Protein concentrations are calculated from a standard curve using bovine serum albumin as standard by linear regression and interpolation.
Following cell harvesting and protein determination, the homogenate is diluted with 10% DMSO to the correct volume based on Bmax and relative size of individual experiments to be conducted. The concentrated protein is stored in cryogenic vials in aliquots of 1-1.5 ml. Samples may be stored in −80° C. freezer or in liquid nitrogen.

Sequence of human dopamine D2Long (D2L) receptors (P14416 whole entry): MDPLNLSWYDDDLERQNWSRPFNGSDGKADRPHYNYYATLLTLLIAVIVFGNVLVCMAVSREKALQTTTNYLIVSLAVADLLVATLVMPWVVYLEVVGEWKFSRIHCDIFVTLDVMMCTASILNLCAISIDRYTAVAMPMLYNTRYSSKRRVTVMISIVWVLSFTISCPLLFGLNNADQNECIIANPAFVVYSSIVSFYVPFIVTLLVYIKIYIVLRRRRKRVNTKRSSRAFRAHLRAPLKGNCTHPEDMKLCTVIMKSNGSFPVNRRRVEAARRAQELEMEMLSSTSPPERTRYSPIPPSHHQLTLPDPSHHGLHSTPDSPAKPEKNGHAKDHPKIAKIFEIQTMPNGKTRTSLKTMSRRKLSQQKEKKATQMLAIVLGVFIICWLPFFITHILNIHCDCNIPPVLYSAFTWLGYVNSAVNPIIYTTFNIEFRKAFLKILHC

| Structure (SMILES) | Ki [1] [nM] | Ki [2] [nM] |
| --- | --- | --- |
| CCC(NC(=O)c1ccc(C)cc1)C(C)CN1CCC([C@@H]2Cc3c(ccc(C)c3O)[C@H](CN)O2)CC1 (stereo partly drawn) [Example 14, N-{3-[4-((1R,3S)-1-Aminomethyl-5-hydroxy-6-methyl-isochroman-3-yl)-piperidin-1-yl]-1-ethyl-2-methyl-propyl}-4-methyl-benzamide dihydrochloride] | ≥ 100000 | 274 |
| Cc1ccc2c(c1O)C[C@@H](C1CCN(CCC(C)NC(=O)c3ccc(-c4ccccc4)cc3)CC1)O[C@H]2CN (stereo partly drawn) [Example 18, Biphenyl-4-carboxylic acid {3-[4-((1R,3S)-1-aminomethyl-5-hydroxy-6-methyl-isochroman-3-yl)-piperidin-1-yl]-1-methyl-propyl}-amide dihydrochloride] | 389 | 244 |
| Cc1ccc2c(c1O)C[C@@H](C1CCN(CCC(C)NC(=O)c3ccc([N+](=O)[O-])cc3)CC1)O[C@H]2CN (stereo partly drawn) [Example 24, N-{3-[4-((1R,3S)-1-Aminomethyl-5-hydroxy-6-methyl-isochroman-3-yl)-piperidin-1-yl]-1-methyl-propyl}-4-nitro-benzamide dihydrochloride] | 638 | 240 |
| Cc1ccc2c(c1O)C[C@@H](C1CCN(CC(C)C)CC1)O[C@H]2CN [Example 40, (1R,3S)-1-Aminomethyl-3-(1-isobutyl-piperidin-4-yl)-6-methyl-isochroman-5-ol dihydrochloride] | ≥ 10000 | 361 |
| Cc1ccc2c(c1O)C[C@@H](C1CCN(CC(C)(C)C)CC1)O[C@H]2CN [Example 42, (1R,3S)-1-Aminomethyl-3-[1-(2,2-dimethyl-propyl)-piperidin-4-yl]-6-methyl-isochroman-5-ol dihydrochloride] | ≥ 10000 | 398 |
| Cc1ccc2c(c1O)C[C@@H](C1CCN(Cc3ccc(F)cc3F)CC1)O[C@H]2CN [Example 50, (1R,3S)-1-Aminomethyl-3-[1-(2,4-difluoro-benzyl)-piperidin-4-yl]-6-methyl-isochroman-5-ol dihydrochloride] | 367 | 47.3 |
| Cc1ccc2c(c1O)C[C@@H](C1CCN(C(C)c3ccccc3)CC1)O[C@H]2CN (stereo partly drawn) [Example 51, (1R,3S)-1-Aminomethyl-6-methyl-3-[1-(1-phenyl-ethyl)-piperidin-4-yl]-isochroman-5-ol dihydrochloride] |  | 156 |
| Cc1ccc2c(c1O)C[C@@H](C1CCN(Cc3ccccn3)CC1)O[C@H]2CN [Example 52, (1R,3S)-1-Aminomethyl-6-methyl-3-(1-pyridin-2-ylmethyl-piperidin-4-yl)-isochroman-5-ol dihydrochloride] | ≥ 10000 | 113 |
| Cc1ccccc1CN1CCC([C@@H]2Cc3c(ccc(C)c3O)[C@H](CN)O2)CC1 [Example 64, (1R,3S)-1-Aminomethyl-6-methyl-3-[1-(2-methyl-benzyl)-piperidin-4-yl]-isochroman-5-ol dihydrochloride] | 576 | 198 |
| COc1ccccc1CN1CCC([C@@H]2Cc3c(ccc(C)c3O)[C@H](CN)O2)CC1 [Example 68, (1R,3S)-1-Aminomethyl-3-[1-(2-methoxy-benzyl)-piperidin-4-yl]-6-methyl-isochroman-5-ol dihydrochloride] | 232 | 96.7 |
| Cc1ccc2c(c1O)C[C@@H](C1CCN(Cc3ccccc3C(F)(F)F)CC1)O[C@H]2CN [Example 72, (1R,3S)-1-Aminomethyl-6-methyl-3-[1-(2-trifluoromethyl-benzyl)-piperidin-4-yl]-isochroman-5-ol dihydrochloride] | 266 | 159 |
| Cc1ccc2c(c1O)C[C@@H](C1CCN(Cc3cccc(C(F)(F)F)c3Cl)CC1)O[C@H]2CN [Example 79, (1R,3S)-1-Aminomethyl-3-[1-(2-chloro-3-trifluoromethyl-benzyl)-piperidin-4-yl]-6-methyl-isochroman-5-ol dihydrochloride] | 310 | 81 |
| Cc1ccc2c(c1O)C[C@@H](C1CCN(Cc3cccc(C(F)(F)F)c3F)CC1)O[C@H]2CN [Example 80, (1R,3S)-1-Aminomethyl-3-[1-(2-fluoro-3-trifluoromethyl-benzyl)-piperidin-4-yl]-6-methyl-isochroman-5-ol dihydrochloride] | 565 | 48.7 |

Now from value to compound:

| Ki [1] [nM] | Ki [2] [nM] | Structure (SMILES) |
| --- | --- | --- |
| 343 | 28.7 | Cc1ccc2c(c1O)C[C@@H](C1CCN(Cc3cc(C(F)(F)F)ccc3F)CC1)O[C@H]2CN [Example 81, (1R,3S)-1-Aminomethyl-3-[1-(2-fluoro-5-trifluoromethyl-benzyl)-piperidin-4-yl]-6-methyl-isochroman-5-ol dihydrochloride] |
| ≥ 10000 | 15.6 | Cc1ccc2c(c1O)C[C@@H](C1CCN(Cc3ccc(C(F)(F)F)c(F)c3)CC1)O[C@H]2CN [Example 82, (1R,3S)-1-Aminomethyl-3-[1-(3-fluoro-4-trifluoromethyl-benzyl)-piperidin-4-yl]-6-methyl-isochroman-5-ol dihydrochloride] |
| 611 | 15.9 | Cc1ccc2c(c1O)C[C@@H](C1CCN(Cc3ccc(F)c(C(F)(F)F)c3)CC1)O[C@H]2CN [Example 83, (1R,3S)-1-Aminomethyl-3-[1-(4-fluoro-3-trifluoromethyl-benzyl)-piperidin-4-yl]-6-methyl-isochroman-5-ol dihydrochloride] |
| 450 | 33 | Cc1ccc2c(c1O)C[C@@H](C1CCN(Cc3cc(F)cc(C(F)(F)F)c3)CC1)O[C@H]2CN [Example 84, (1R,3S)-1-Aminomethyl-3-[1-(3-fluoro-5-trifluoromethyl-benzyl)-piperidin-4-yl]-6-methyl-isochroman-5-ol dihydrochloride] |
|  | 156 | Cc1ccc2c(c1O)C[C@@H](C1CCN(C(=O)N(c3ccccc3)c3ccccc3)CC1)O[C@H]2CN [Example 130, 4-((1R,3S)-1-Aminomethyl-5-hydroxy-6-methyl-isochroman-3-yl)-piperidine-1-carboxylic acid diphenylamide hydrochloride] |
|  | 110 | CCCN(C)C[C@@H]1O[C@H](C2CCN(Cc3ccc(C(F)(F)F)cc3)CC2)Cc2c1ccc(C)c2O [Example 184, (1R,3S)-6-Methyl-1-[(methyl-propyl-amino)-methyl]-3-[1-(4-trifluoromethyl-benzyl)-piperidin-4-yl]-isochroman-5-ol] |
|  | 3100 | C=CCN(CC=C)C[C@@H]1O[C@H](C2CCN(Cc3ccc(C(F)(F)F)cc3)CC2)Cc2c1ccc(C)c2O [Example 185, (1R,3S)-1-Diallylaminomethyl-6-methyl-3-[1-(4-trifluoromethyl-benzyl)-piperidin-4-yl]-isochroman-5-ol] |
|  | 1910 | C=CCNC[C@@H]1O[C@H](C2CCN(Cc3ccccc3)CC2)Cc2c1ccc(C)c2O [Example 186, (1R,3S)-1-Allylaminomethyl-3-(1-benzyl-piperidin-4-yl)-6-methyl-isochroman-5-ol] |
|  | 2640 | C=CCN(CC=C)C[C@@H]1O[C@H](C2CCN(Cc3ccccc3)CC2)Cc2c1ccc(C)c2O [Example 187, (1R,3S)-3-(1-Benzyl-piperidin-4-yl)-1-diallylaminomethyl-6-methyl-isochroman-5-ol] |
|  | 1700 | Cc1ccc2c(c1O)C[C@@H](C1CCN(C(C(=O)O)c3ccccc3)CC1)O[C@H]2CN (stereo partly drawn) [Example 195, [4-((1R,3S)-1-Aminomethyl-5-hydroxy-6-methyl-isochroman-3-yl)-piperidin-1-yl]-phenylacetic acid dihydrobromide] |
